Measurements as given in publication PMC12276038, “Impact of Chelation on Reactivity and Cytotoxicity of Hemilabile Biphenyl Gold(III) N‐Heterocyclic Carbene Complexes” (Chemmedchem, 2025).

Assays:
[1] = molecules of known Log(k′w) used for calibration; cited from earlier work
[2] = Speciation in DMSO-d6/serum-free DMEM by 1H NMR; type: physicochemical; conditions: 3/1 DMSO‐d6/serum‐free DMEM, immediately after mixing (t < 5 min)
Protocol: Speciation in DMEM: NMR spectra were recorded on a Bruker Avance II 300 spectrometer (7 T) operating at a ^1H Larmor frequency of 300.13 MHz with a 5 mm observe broadband probe (QNP) z‐axis (^31P/^19 F/^13C/^1H) at 27 °C.
Solutions of the gold complexes (10 mM) were freshly prepared in DMSO‐d6. Samples were prepared by mixing 200 μL of complex solution with 100 μL (resp. 67 μL) of pure DMSO‐d6 and 100 μL (resp. 133 μL) of DMEM GlutaMax High glucose without FBS. ^1H NMR spectra were acquired immediately after mixing (t < 5 min) using a standard zg30 sequence to determine the resonant frequency of water in the tube. Further spectra were acquired using a cpmg‐esgp1d sequence (pulse program available^[ [60] ^]) which carrier frequency (O1P) was tuned to the water peak maximum to ensure optimal water suppression. The Hahn echo time (D20) was left null to acquire a spectrum without the use of T2‐gating. A particular attention was paid to the shimming process as poor shims result in a broader water signal thus leading to an inefficient water suppression.

MDA‐MB‐231 = experiment: Resazurin cell proliferation assay on MDA-MB-231 cells; type: cell-based, human; conditions: MDA‐MB‐231, 72 h incubation
Source text: (§1) Considering the equivalent activities for neutral and cationic analogs, only cationic representatives of the BGC12, BGC18, and BGC19 couples were further screened on two other human cancer cell lines including hepatic carcinoma Huh‐7 and “triple negative” breast adenocarcinoma MDA‐MB‐231 and noncancerous epithelial breast cells MCF‐10 A (Table 1 ).
(§2) HeLa and MDA‐MB‐231 cells were cultivated in DMEM GlutaMax High Glucose supplemented with 10 vol% fetal bovine serum (FBS) and 1 vol% penicillin/streptomycin (50 U/mL and 50 μg/mL respectively). Huh‐7 cells were cultivated in MEM supplemented with 10 vol% FBS, GlutaMax (2 mM), sodium pyruvate (1 mM), nonessential amino acids mix (0.1 mM), and 1 vol% penicillin/streptomycin. MCF10A cells were cultivated in DMEM:F12 GlutaMax supplemented with 1 vol% penicillin/streptomycin, hEGF (20 ng/mL), hydrocortisone ([…]), cholera toxin (100 ng/mL), insulin (10 μg/mL), and 5 vol% horse serum. These media will be further referred as “Complete media.”
(§3) Stock solutions of the gold complexes (20 mM) were prepared in DMSO and kept at −20 °C. Serial dilutions were performed to obtain a set of 8 concentrations with a 2‐fold geometric progression, and were stored at −20 °C as well.
(§4) Cell proliferation assays were performed using resazurin as a viability indicator. Cells were seeded in 96‐well plates (2000 cells/100 μL per well) in the appropriate complete medium and allowed to grow for 24 h. Cells were then treated in triplicate with 8 different concentrations of the complexes, which were added as 100 μL of 2x dilution in culture medium containing no FBS (or containing 5% horse serum for MCF‐10 A cells), thus leading to a 5% concentration of serum in each well. […] The fluorescence intensity of the reduction product resorufin was measured in each well (540 nm excitation, 590 nm reading), and cellular viability was computed as the fluorescence ratio between sample and DMSO control wells after blank subtraction. […]

[3] = Solvolysis / stability in DMSO-d6 and DMSO-d6/D2O by 1H NMR; type: physicochemical; conditions: 24 h incubation at 37 °C in DMSO
Protocol: Solvolysis Kinetics: 400 μL of freshly prepared gold complex solution in DMSO‐d6 (5 mM) was transferred to an NMR tube. Spectra were acquired straight away (t0 reference) prior to transferring the tubes to an oven set at 37 °C for 72 h. Spectra were then acquired periodically during incubation. The same procedure was repeated with addition of 100 μL of D2O to each tube.
Solvolysis: A concentrated solution of gold complex (≈40 mM) was prepared in 1 mL DMSO‐d6 mixed with 250 μL of D2O and incubated at 37 °C for 24 h. The solution was then extracted 5 times with 3 mL DCM. The DCM phase was recovered and evaporated thoroughly, and the resulting residue was dissolved in MeCN‐d3 and analyzed by ^1H NMR.

HeLa cells [4] = experiment: Resazurin cell proliferation assay on HeLa cells; type: cell-based, human; conditions: 72 h incubation
Source text: All new 16 BGC compounds were screened against HeLa cells (cervical adenocarcinoma) to assess their antiproliferative activity through a resazurin cell viability assay.^[ [49] ^] The dose‐response curves were then fitted by a 4‐parameter sigmoid function to extract the median effective concentrations (EC50) shown in Figure 7 .
as §2, §3
Cell proliferation assays were performed using resazurin as a viability indicator. Cells were seeded in 96‐well plates (2000 cells/100 μL per well) in the appropriate complete medium and allowed to grow for 24 h. Cells were then treated in triplicate with 8 different concentrations of the complexes, which were added as 100 μL of 2x dilution in culture medium containing no FBS (or containing 5% horse serum for MCF‐10 A cells), thus leading to a 5% concentration of serum in each well. After 72 h incubation, 110 μL of supernatant was removed from each well, and 10 μL of 500 μM resazurin solution (10x) in PBS were added prior to incubating the cells for 2 h. The fluorescence intensity of the reduction product resorufin was measured in each well (540 nm excitation, 590 nm reading), and cellular viability was computed as the fluorescence ratio between sample and DMSO control wells after blank subtraction. The EC50 value was computed by fitting the data with a 4‐parameter sigmoid σ through nonlinear least square regression, where the EC50 value is directly the c parameter. The regression was performed using curve_fit() function scipy.optimize module in python (scripts available^[ [60] ^]). σ(x,a,b,c,d)=d+a−d/1+(x/c)^b

MCF‐10 A = experiment: Resazurin cell proliferation assay on noncancerous MCF-10A cells; type: cell-based, human; conditions: MCF‐10 A noncancerous cells, 72 h incubation
Source text: as §1, §2, §3, §4

[5] = Reaction with chloride ions by 1H NMR; type: physicochemical; conditions: 1 eq. chloride source, DMSO‐d6/D2O 4/1
Protocol: Reaction with Chloride Ions: 400 μL of freshly prepared gold complex solution in DMSO‐d6 (5 mM) was added to an NMR tube, followed by 4 μL of 0.5 M NaCl in D2O and 96 μL of D2O. Spectra were acquired straight away (t0 reference) prior to transferring the tubes to an oven set at 37 °C for 72 h. Spectra were then acquired periodically during incubation.

[6] = Log P determination by reverse-phase HPLC (OECD method); conditions: 25% water in acetonitrile (condition B)
Huh‐7 = experiment: Resazurin cell proliferation assay on Huh-7 cells; type: cell-based, human; conditions: Huh‐7, 72 h incubation
Source text: as §1, §2, §3, §4

[7] = test system: mitochondrial membrane potential of HeLa cells; experiment: Mitochondrial membrane polarization JC-10 endpoint assay; type: cell-based, human; conditions: 10 μM, 1 h or 4 h
Protocol: Several gold complexes were previously reported to accumulate in mitochondria^[ [50], [51] ^] or even to disrupt their membrane potential.^[ [27], [52], [53] ^] We therefore investigated the possible antimitochondrial activity of BGC19b, chosen as a representative of the most toxic compounds. Briefly, we incubated HeLa cells with BGC19b (1 h or 4 h) or CCCP (4 h) as positive control and monitored the mitochondrial membrane potential through a JC‐10 endpoint assay.
HeLa cells were seeded in a 96‐well plate (2000 cells in 100 μL complete medium per well) and left to adhere. Cells were then treated in triplicate with gold complexes (addition of 100 μL of 2x complex solution in FBS‐free medium) 4 h and 1 h before reading the plate. A control triplicate was treated with CCCP (10 μM) and incubated for 4 h before reading. One hour before reading, 100 μL of supernatant was withdrawn from each well and replaced with JC‐10 in assay buffer A solution (Abcam, 1x, 50 μL). Cells were incubated with the marker for 1 h, and assay buffer B (50 μL) was added. Mitochondrial membrane potential was assessed by computing the ratio of fluorescence intensities between aggregated (λ ex = 540 nm, λ fluo = 590 nm) and nonaggregated JC‐10 (λ ex = 490 nm, λ fluo = 525 nm). […]

[8] = test system: effector caspases 3 and 7 in HeLa cells; experiment: Caspase 3/7 activity and cellular morphology by time lapse videomicroscopy; type: cell-based, human; conditions: for Rate of apoptosis induction (caspase activation kinetics): BGC19b 1.7 μM, CCCP 10 μM
Protocol: Apoptosis is a possible outcome of energy shortage in cells following mitochondrial depolarization. We thus monitored the activity of the effector caspases 3 and 7, as a readout of cell apoptosis. The overall cellular morphology was analyzed in parallel.
HeLa cells were seeded in an 8‐well Ibidi slide (4000 cells in 500 μL complete medium per well) and allowed to grow for 24 h. The culture medium was changed to a fresh one (DMEM 5% FBS, 200 μL) containing SiR‐DNA dye (Spirochrome, 1 μM) and CellEvent Caspase 3/7 Green marker (ThermoFisher, 1 μM). […] Cells were monitored for 24 h (20 min step between images) by phase contrast and fluorescence microscopy (Cy5 and EGFP filters for SiR‐DNA and CellEvent Caspase 3/7 markers, respectively). Images were processed using Fiji, and cellular viabilities were extracted as Viability=1−NEGFP/NCy5 where N i denotes the number of cells counted in channel i. Cells were counted in EGFP and Cy5 channels using TrackMate (DoG detector + Simple LAP tracker).^[ [62] ^] The cellular morphology was also manually monitored using the phase contrast channel by tagging cells losing adhesion and displaying blebs.^[ [60] ^]

HeLa cells [9] = experiment: Resazurin viability run in parallel to the JC-10 assay; type: cell-based, human; conditions: 10 μM, 1 h and 4 h
[10] = set-up: method as in PMID 29277693; conditions: read-out: EC50 of CCCP; cited from earlier work

COc1ccccc1 [Anisole]
log(k’w) of log P standard mix [1]: 2.1

C[n+]1ccn2[c]1[Au-]1([c]3cc(C(C)(C)C)ccc3-c3ccc(C(C)(C)C)c[c]31)[n+]1ccccc1C2.F[P-](F)(F)(F)(F)F [BGC12b]
Species identified in culture medium mixture [2]: only the neutral complexes were identified
EC50 (MDA‐MB‐231): 2.9 ± 0.1 µM
Spectra in MeCN‐d3 after incubation in DMSO and extraction in DCM [3]: unchanged
EC50 (HeLa cells [4]): 1.8 ± 0.1 µM
EC50 (MCF‐10 A): 1.2 ± 0.3 µM
Conversion of cationic to neutral form on addition of chloride [5]: converted back quantitatively and instantaneously
Log P (cationic b, form) [6]: 3.9
EC50 (Huh‐7): 1.8 ± 0.1 µM

Cc1cccc2[n+]1[Au-]1([c]3cc(C(C)(C)C)ccc3-c3ccc(C(C)(C)C)c[c]31)[c]1n(cc[n+]1C)C2.F[P-](F)(F)(F)(F)F [BGC13b]
Log P (cationic b, form) [6]: 4.4

Cc1cc[n+]2c(c1)Cn1cc[n+](C)[c]1[Au-]21[c]2cc(C(C)(C)C)ccc2-c2ccc(C(C)(C)C)c[c]21.F[P-](F)(F)(F)(F)F [BGC14b]
Log P (cationic b, form) [6]: 4.8

COc1cc[n+]2c(c1)Cn1cc[n+](C)[c]1[Au-]21[c]2cc(C(C)(C)C)ccc2-c2ccc(C(C)(C)C)c[c]21.F[P-](F)(F)(F)(F)F [BGC15b]
Conversion of cationic to neutral form on addition of chloride [5]: converted back quantitatively and instantaneously
Log P (cationic b, form) [6]: 4.2

C[n+]1ccn2[c]1[Au-]1([c]3cc(C(C)(C)C)ccc3-c3ccc(C(C)(C)C)c[c]31)[n+]1c(ccc3ccccc31)C2.F[P-](F)(F)(F)(F)F [BGC16b]
EC50 (HeLa cells [4]): 3.2 ± 0.3 µM
Log P (cationic b, form) [6]: 4.5

C[n+]1ccn2[c]1[Au-]1([c]3cc(C(C)(C)C)ccc3-c3ccc(C(C)(C)C)c[c]31)[n+]1ccncc1C2.F[P-](F)(F)(F)(F)F [BGC17b]
Log P (cationic b, form) [6]: 3.5

C[n+]1[c]2n(c3ccccc31)Cc1cccc[n+]1[Au-]21[c]2cc(C(C)(C)C)ccc2-c2ccc(C(C)(C)C)c[c]21.F[P-](F)(F)(F)(F)F [BGC18b]
EC50 (MDA‐MB‐231): 4.4 ± 0.8 µM
EC50 (HeLa cells [4]): 2.8 ± 0.7 µM
EC50 (MCF‐10 A): 2.8 ± 0.5 µM
Log P (cationic b, form) [6]: 4.5
EC50 (Huh‐7): 2.5 ± 0.4 µM

CC(C)(C)c1ccc2[c](c1)[Au-]1([c]3cc(C(C)(C)C)ccc3-2)[c]2n3ccccc3c[n+]2Cc2cccc[n+]21.F[P-](F)(F)(F)(F)F [BGC19b]
Species identified in culture medium mixture [2]: only the neutral complexes were identified
EC50 (MDA‐MB‐231): 2 ± 0.1 µM
Mitochondrial membrane depolarization [7]: significant mitochondrial membrane depolarization
EC50 (HeLa cells [4]): 1.8 ± 0.6 µM
EC50 (MCF‐10 A): 1.6 ± 0.4 µM
Conversion of cationic to neutral form on addition of chloride [5]: converted back quantitatively and instantaneously
Log P (cationic b, form) [6]: 4.3
EC50 (Huh‐7): 1.4 ± 0.1 µM
Induction period before adhesion loss, blebs and caspase 3/7 activation ([8]; 1.7 μM): around 4 h
Rate of apoptosis induction (caspase activation kinetics) [8]: induces apoptosis much faster than CCCP
Change in cell viability during JC-10 assay (HeLa cells [9]): no significant change in cell viability

N#CC(C#N)=NNc1cccc(Cl)c1 [CCCP, reference compound]
EC50 [10]: 10 µM
Rate of apoptosis induction (caspase activation kinetics) [8]: occurred at a much slower rate compared to BGC19b

c1ccc2ccccc2c1 [Naphtalene]
log(k’w) of log P standard mix [1]: 3.6

CCCCCCCCc1ccccc1 [Octylbenzene]
log(k’w) of log P standard mix [1]: 6.3
